Calls of active or inactive are those of the source. The rule behind the calls is not given here.
Assays:
[1] = target: Histone deacetylase 4 (Homo sapiens) (UniProt P56524); assay: Inhibition of recombinant human HDAC4 at 10 uM using […] substrate by fluorescence assay relative to control
MDA-MB-231 [2] = assay: Cytotoxicity against human MDA-MB-231 cells assessed as reduction in cell viability incubated for 48 hrs by MTT assay; format: functional, cell-based; conditions: MDA-MB-231, 48 h
[3] = target: Histone deacetylase (Homo sapiens) (UniProt Q13547+O15379+Q9UBN7+Q92769+Q9UQL6+Q8WUI4+Q9BY41+Q96DB2+P56524+Q9UKV0+Q969S8); assay: Inhibition of HDAC in human MDA-MB-231 cells assessed as increase in histone H3 acetylation incubated for 24 hrs by Western blot analysis; format: cell-based; conditions: dose 0.5-5 µM, DDE = dose-dependent effect
[4] = target: T1, Protein deacetylase HDAC6 (Homo sapiens, UniProt Q9UBN7); assay: Inhibition of recombinant human HDAC6 using RHKK(Ac)AMC fluorogenic peptide as substrate by fluorescence assay
T1 sequence (Q9UBN7 whole entry): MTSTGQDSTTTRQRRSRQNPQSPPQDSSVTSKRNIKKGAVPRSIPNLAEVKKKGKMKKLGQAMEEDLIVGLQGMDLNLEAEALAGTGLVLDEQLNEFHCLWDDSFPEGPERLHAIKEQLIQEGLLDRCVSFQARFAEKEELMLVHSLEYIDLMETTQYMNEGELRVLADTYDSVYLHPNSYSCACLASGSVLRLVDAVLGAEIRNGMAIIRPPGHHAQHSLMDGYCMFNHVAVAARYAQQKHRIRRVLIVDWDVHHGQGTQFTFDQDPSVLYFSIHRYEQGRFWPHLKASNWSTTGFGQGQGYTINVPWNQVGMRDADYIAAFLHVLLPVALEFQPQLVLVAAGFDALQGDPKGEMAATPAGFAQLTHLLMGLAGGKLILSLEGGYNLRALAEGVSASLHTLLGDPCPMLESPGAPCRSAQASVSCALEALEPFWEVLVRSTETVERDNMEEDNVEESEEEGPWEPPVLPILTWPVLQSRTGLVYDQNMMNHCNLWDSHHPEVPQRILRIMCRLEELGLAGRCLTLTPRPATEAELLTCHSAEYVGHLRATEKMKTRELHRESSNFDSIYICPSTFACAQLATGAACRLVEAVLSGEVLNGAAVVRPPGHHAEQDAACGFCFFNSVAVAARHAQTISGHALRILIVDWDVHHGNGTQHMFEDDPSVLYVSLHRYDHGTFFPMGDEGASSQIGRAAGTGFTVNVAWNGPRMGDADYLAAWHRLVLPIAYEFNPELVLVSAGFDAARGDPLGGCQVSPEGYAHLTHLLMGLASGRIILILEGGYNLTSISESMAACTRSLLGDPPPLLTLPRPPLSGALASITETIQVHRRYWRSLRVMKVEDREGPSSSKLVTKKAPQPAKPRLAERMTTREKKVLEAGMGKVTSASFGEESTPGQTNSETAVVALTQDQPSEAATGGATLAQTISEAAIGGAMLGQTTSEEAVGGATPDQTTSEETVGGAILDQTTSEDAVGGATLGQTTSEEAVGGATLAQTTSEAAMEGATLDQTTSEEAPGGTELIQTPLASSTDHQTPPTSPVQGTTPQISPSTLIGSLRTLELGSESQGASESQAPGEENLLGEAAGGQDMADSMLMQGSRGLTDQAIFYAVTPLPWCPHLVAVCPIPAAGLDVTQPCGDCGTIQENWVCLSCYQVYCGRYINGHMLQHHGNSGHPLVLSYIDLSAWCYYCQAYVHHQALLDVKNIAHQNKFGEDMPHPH

[5] = target: T2, Signal transducer and activator of transcription 3 (Homo sapiens, UniProt P40763); assay: Inhibition of STAT3 in human MDA-MB-231 cells assessed as decrease in Bcl-2 mRNA expression at 0.5 to 5 uM by qRT-PCR analysis; format: cell-based; conditions: dose 0.5-5 µM
T2 sequence (P40763 whole entry): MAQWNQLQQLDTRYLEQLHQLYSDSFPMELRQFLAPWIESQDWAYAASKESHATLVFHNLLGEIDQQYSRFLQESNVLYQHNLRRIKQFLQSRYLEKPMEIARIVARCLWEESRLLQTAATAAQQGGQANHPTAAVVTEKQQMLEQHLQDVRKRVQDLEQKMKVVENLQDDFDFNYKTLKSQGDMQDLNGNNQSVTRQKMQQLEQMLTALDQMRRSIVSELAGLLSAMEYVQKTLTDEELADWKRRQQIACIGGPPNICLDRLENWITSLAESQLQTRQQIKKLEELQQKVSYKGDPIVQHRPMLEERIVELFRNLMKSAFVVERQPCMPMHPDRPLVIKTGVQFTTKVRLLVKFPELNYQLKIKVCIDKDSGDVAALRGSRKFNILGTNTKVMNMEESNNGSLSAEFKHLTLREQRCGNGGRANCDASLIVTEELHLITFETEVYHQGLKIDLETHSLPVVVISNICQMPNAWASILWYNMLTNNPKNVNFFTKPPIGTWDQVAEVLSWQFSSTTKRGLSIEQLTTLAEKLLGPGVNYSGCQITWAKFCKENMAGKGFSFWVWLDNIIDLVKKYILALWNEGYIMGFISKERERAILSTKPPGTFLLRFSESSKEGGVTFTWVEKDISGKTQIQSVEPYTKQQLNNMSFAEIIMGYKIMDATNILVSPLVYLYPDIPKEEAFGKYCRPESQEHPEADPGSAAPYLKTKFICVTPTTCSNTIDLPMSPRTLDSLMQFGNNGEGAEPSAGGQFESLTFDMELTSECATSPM

[6] = target: T2, Signal transducer and activator of transcription 3; assay: Binding affinity to recombinant GST tagged STAT3 (unknown origin) assessed as dissociation constant
MDA-MB-231 [7] = assay: Effect on STAT3 in human MDA-MB-231 cells assessed as […] phosphorylation at 10 uM incubated for 24 hrs by Western blot analysis; format: functional, cell-based
MDA-MB-231 [8] = assay: Induction of apoptosis in human MDA-MB-231 cells assessed as chromatin condensation at 0.5 to 5 uM incubated for 24 hrs by Hoechst 33258 staining based fluorescence microscopy analysis; format: functional, cell-based; conditions: dose 0.5-5 µM
MDA-MB-231 [9] = assay: Induction of apoptosis in human MDA-MB-231 cells assessed as viable cells at 2 uM incubated for 24 hrs by Annexin-V/FITC and PI staining based flow cytometry analysis (reference value: 97.8%); format: functional; conditions: read-out: Activity
MDA-MB-231 [10] = assay: Induction of apoptosis in human MDA-MB-231 cells assessed as viable cells at 5 uM incubated for 24 hrs by Annexin-V/FITC and PI staining based flow cytometry analysis (reference value: 97.8%); format: functional; conditions: read-out: Activity
MDA-MB-231 [11] = assay: Induction of apoptosis in human MDA-MB-231 cells assessed as early apoptotic cells at 5 uM incubated for 24 hrs by Annexin-V/FITC and PI staining based flow cytometry analysis (reference value: 1.4%); format: functional
MDA-MB-231 [12] = assay: Induction of apoptosis in human MDA-MB-231 cells assessed as late apoptotic cells at 2 uM incubated for 24 hrs by Annexin-V/FITC and PI staining based flow cytometry analysis (reference value: 0.7%); format: functional
MDA-MB-231 [13] = assay: Induction of apoptosis in human MDA-MB-231 cells assessed as late apoptotic cells at 5 uM incubated for 24 hrs by Annexin-V/FITC and PI staining based flow cytometry analysis (reference value: 0.7%); format: functional
MDA-MB-231 [14] = assay: Induction of apoptosis in human MDA-MB-231 cells assessed as necrotic cells at 5 uM incubated for 24 hrs by Annexin-V/FITC and PI staining based flow cytometry analysis (reference value: 0.0%); format: functional
MDA-MB-231 [15] = assay: Induction of apoptosis in human MDA-MB-231 cells assessed as increase in cleaved capase-3 level at 0.5 to 5 uM incubated for 24 hrs by Western blot analysis; format: functional, cell-based; conditions: dose 0.5-5 µM
MDA-MB-231 [16] = assay: Induction of apoptosis in human MDA-MB-231 cells assessed as increase in cleaved PARP level at 0.5 to 5 uM incubated for 24 hrs by Western blot analysis; format: functional, cell-based; conditions: dose 0.5-5 µM
[17] = Half life in Sprague-Dawley rat at 20 mg/kg, po measured upto 24 hrs by LC-MS/MS analysis; format: ADME, organism-based; conditions: in vivo
4T1 = assay: Antitumor activity against mouse 4T1 cells allografted in BALB/c mouse assessed as reduction in tumor weight at 30 mg/kg, ip qd for 21 days by vernier caliper method relative to control; format: functional; set-up: scale not given: the % may be the effect or the level left; conditions: time 21 day

Chain of Histone deacetylase 4 (Homo sapiens) (P56524 whole entry): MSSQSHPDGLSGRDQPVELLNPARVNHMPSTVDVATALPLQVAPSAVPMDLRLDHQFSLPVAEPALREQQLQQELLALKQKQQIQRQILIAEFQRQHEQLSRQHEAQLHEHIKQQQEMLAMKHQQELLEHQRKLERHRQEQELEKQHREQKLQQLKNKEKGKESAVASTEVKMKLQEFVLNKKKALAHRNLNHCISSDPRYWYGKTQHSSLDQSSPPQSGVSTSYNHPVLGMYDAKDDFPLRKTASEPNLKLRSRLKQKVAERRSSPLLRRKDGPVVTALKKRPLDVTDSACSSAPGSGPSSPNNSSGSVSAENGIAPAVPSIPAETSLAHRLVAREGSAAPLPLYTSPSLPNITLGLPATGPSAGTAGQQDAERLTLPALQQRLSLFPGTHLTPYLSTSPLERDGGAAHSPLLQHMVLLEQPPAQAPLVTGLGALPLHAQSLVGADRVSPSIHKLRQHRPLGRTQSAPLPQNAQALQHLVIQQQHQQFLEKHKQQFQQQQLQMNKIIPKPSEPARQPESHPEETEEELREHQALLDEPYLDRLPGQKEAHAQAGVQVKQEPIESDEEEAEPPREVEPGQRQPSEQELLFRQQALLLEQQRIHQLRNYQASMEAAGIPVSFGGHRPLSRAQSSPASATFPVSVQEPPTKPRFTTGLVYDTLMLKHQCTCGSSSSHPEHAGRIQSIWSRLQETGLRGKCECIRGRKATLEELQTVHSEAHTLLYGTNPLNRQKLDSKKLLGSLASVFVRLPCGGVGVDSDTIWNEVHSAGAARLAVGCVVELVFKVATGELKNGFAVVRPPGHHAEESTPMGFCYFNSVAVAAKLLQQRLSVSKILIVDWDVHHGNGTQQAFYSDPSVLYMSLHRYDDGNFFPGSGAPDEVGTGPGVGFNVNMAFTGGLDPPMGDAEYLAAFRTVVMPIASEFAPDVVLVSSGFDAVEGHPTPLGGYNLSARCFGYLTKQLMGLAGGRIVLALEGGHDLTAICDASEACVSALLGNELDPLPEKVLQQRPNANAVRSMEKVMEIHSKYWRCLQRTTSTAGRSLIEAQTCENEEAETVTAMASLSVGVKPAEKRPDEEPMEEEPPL

COc1cc(/C=C/c2ccc(OCCCCCCC(=O)NO)cc2)cc(OC)c1
inhibition [1]: 12%
IC50 (MDA-MB-231 [2]): 780 nM
Activity [3]: Dde
IC50 [4]: 104 nM
inhibition [5]: Active
Kd [6]: 0.01516 s⁻¹
Kd ([6]; read-out: Kd): 33.6 nM
Activity (MDA-MB-231 [7]): Active
Activity (MDA-MB-231 [8]): Active
viability at 2 µM (MDA-MB-231 [9]): 89.3%
viability at 5 µM (MDA-MB-231 [10]): 80.8%
Activity (MDA-MB-231 [11]): 15.2%
Activity (MDA-MB-231 [12]): 5.7%
Activity (MDA-MB-231 [13]): 3.9%
Activity (MDA-MB-231 [14]): 0.2%
Activity (MDA-MB-231 [15]): Active
Activity (MDA-MB-231 [16]): Active
half-life [17]: 52.8 min
Activity (4T1): 62%
